Where no end group is shown, it is not given here.
Legend:
[1] = system: Cldn-4 deletion mutant proteins fused to GST; assay type: binding, Mouse
[2] = target: Cldn-4 deletion mutant proteins fused to GST (Mus musculus, UniProt O35054); assay type: binding

SLDAGQYVLVMKANSSYSGNYPYSILFQKF [Cpe30]
binding to GST cldn-4 fusion proteins [1]: high affinity specific binding | binding to GST-Ecl2 without any TM domain [2]: detectable binding activity, albeit at much lower affinity | binding to TM3.Ecl2.TM4 [2]: consistent binding | sensorgram behaviour with full length Cldn-4 fusion [2]: slight decrease in the late stages of association

— patent US8258257B2 (The Regents of the University of California, priority 2008, dated 2012)
